Reference: patent publication US10294246B2, “Substituted boronic acids and boronate esters as immunoproteasome inhibitors” (MERCK PATENT GMBH, priority 2014, dated 2019)

Columns and labels:
[1] = molecular target: human immunoproteasome (LMP7) (Homo sapiens (Human), UniProt P28062); assay: Determination of LMP7 activity (fluorescence intensity assay, Suc-LLVY-AMC); format: biochemical; conditions: for Selectivity LMP7 vs Beta5: LMP7 versus Beta5; for IC50: purified human immunoproteasome 0.25 nM, Suc-LLVY-AMC 40 μM
Method: Determination of LMP7 Activity:
Measurement of LMP7 inhibition is performed in 384 well format based on fluorescence intensity assay.
(§1) Purified human immunoproteasome (0.25 nM) and serial diluted compounds in DMSO (range of concentrations from 30 μM to […]) or controls are incubated for 20 minutes at 25° C. in assay buffer containing 50 mM Tris pH 7.4, 0.03% SDS, 1 mM EDTA and 1% DMSO. The reaction is initiated by the addition of the fluorogenic peptide substrate, Suc-LLVY-AMC (Bachem 1-1395), at a concentration of 40 μM. After 60 minutes of incubation at 37° C., fluorescence intensity is measured at λex=350 nm and λem=450 nm with a fluorescence reader (Perkin Elmer Envision reader or equivalent).

[2] = molecular target: human constitutive proteasome (Beta5) (Homo sapiens (Human), UniProt P28074); assay: Determination of Beta5 activity (fluorescence intensity assay, Suc-LLVY-AMC); format: biochemical; conditions: purified human constitutive proteasome 1.25 nM, Suc-LLVY-AMC 40 μM
Method: Determination of Beta5 Activity:
Measurement of Beta5 inhibition is performed in 384 well format based on fluorescence intensity assay.
as §1, with “constitutive proteasome (1.25” for “immunoproteasome (0.25”

SMILES	Selectivity LMP7 vs Beta5 [1]	IC50 [1]	IC50 [2]
O=C(Cc1ccccc1OC1CCOCC1)N[C@@H](Cc1coc2ccccc12)B(O)O [Compound No. 54, [(1R)-2-(benzofuran-3-yl)-1-[[2-(2-tetrahydropyran-4-yloxyphenyl)-acetyl]amino]ethyl]boronic acid]	+++++ (Selectivity ≥ 100)	< 0.05 µM	0.05 to 0.5 µM
O=C(Cc1ccccc1OCCCO)N[C@@H](Cc1coc2ccccc12)B(O)O [Compound No. 55, [(1R)-2-(benzofuran-3-yl)-1-[[2-[2-(3-hydroxypropoxy)phenyl]acetyl]-amino]ethyl]boronic acid]	++++ (70 ≤ Selectivity < 100)	< 0.05 µM	0.5 to 5 µM
O=C(N[C@H](Cc1coc2ccccc12)B(O)O)[C@H](CO)c1ccccc1 [Compound No. 56, [(1S)-2-(benzofuran-3-yl)-1-[[(2S)-3-hydroxy-2-phenyl-propanoyl]-amino]ethyl]boronic acid]	+++++ (Selectivity ≥ 100)	0.05 to 0.5 µM	> 5 µM
O=C(N[C@@H](Cc1coc2ccccc12)B(O)O)[C@H](CO)c1ccccc1 [Compound No. 57, [(1R)-2-(benzofuran-3-yl)-1-[[(2S)-3-hydroxy-2-phenyl-propanoyl]-amino]ethyl]boronic acid]	+++++ (Selectivity ≥ 100)	< 0.05 µM	0.5 to 5 µM
COc1ccc(OC)c(CC(=O)N[C@@H](Cc2coc3ccccc23)B(O)O)c1 [Compound No. 58, [(1R)-2-(benzofuran-3-yl)-1-[[2-(2,5-dimethoxyphenyl)acetyl]amino]-ethyl]boronic acid]	++++ (70 ≤ Selectivity < 100)	< 0.05 µM	0.05 to 0.5 µM
O=C(N[C@@H](Cc1coc2ccccc12)B(O)O)[C@@H](CO)c1ccccc1 [Compound No. 59, [(1R)-2-(benzofuran-3-yl)-1-[[(2R)-3-hydroxy-2-phenyl-propanoyl]-amino]ethyl]boronic acid]	++++ (70 ≤ Selectivity < 100)	< 0.05 µM	0.05 to 0.5 µM
COc1ccc(CC(=O)N[C@@H](Cc2coc3ccccc23)B(O)O)c(OC)c1OC [Compound No. 60, [(1R)-2-(benzofuran-3-yl)-1-[[2-(2,3,4-trimethoxyphenyl)acetyl]amino]-ethyl]boronic acid]	++++ (70 ≤ Selectivity < 100)	< 0.05 µM	0.05 to 0.5 µM
O=C(Cc1ccccc1OCCCO)N[C@H](Cc1coc2ccccc12)B(O)O [Compound No. 61, [(1S)-2-(benzofuran-3-yl)-1-[[2-[2-(3-hydroxypropoxy)phenyl]acetyl]-amino]ethyl]boronic acid]	+++++ (Selectivity ≥ 100)	0.05 to 0.5 µM	> 5 µM
O=C(N[C@H](Cc1coc2ccccc12)B(O)O)[C@@H](CO)c1ccccc1 [Compound No. 62, [(1S)-2-(benzofuran-3-yl)-1-[[(2R)-3-hydroxy-2-phenyl-propanoyl]-amino]ethyl]boronic acid]	+++++ (Selectivity ≥ 100)	< 0.05 µM	0.5 to 5 µM
O=C(Cc1ccccc1C(=O)N1CCOCC1)N[C@@H](Cc1coc2ccccc12)B(O)O [Compound No. 63, [(1R)-2-(benzofuran-3-yl)-1-[[2-[2-(morpholine-4-carbonyl)phenyl]-acetyl]amino]ethyl]boronic acid]	+++++ (Selectivity ≥ 100)	< 0.05 µM	0.5 to 5 µM
O=C(Cc1ccc(N2CCCC2=O)cc1)N[C@@H](Cc1coc2ccccc12)B(O)O [Compound No. 64, [(1R)-2-(benzofuran-3-yl)-1-[[2-[4-(2-oxopyrrolidin-1-yl)phenyl]acetyl]-amino]ethyl]boronic acid]	+++ (50 ≤ Selectivity < 70)	< 0.05 µM	0.05 to 0.5 µM
CCNC(=O)c1ccccc1CC(=O)N[C@@H](Cc1coc2ccccc12)B(O)O [Compound No. 65, [(1R)-2-(benzofuran-3-yl)-1-[[2-[2-(ethylcarbamoyl)phenyl]acetyl]-amino]ethyl]boronic acid]	++++ (70 ≤ Selectivity < 100)	< 0.05 µM	0.5 to 5 µM
CN(C)C(=O)c1ccccc1CC(=O)N[C@@H](Cc1coc2ccccc12)B(O)O [Compound No. 66, [(1R)-2-(benzofuran-3-yl)-1-[[2-[2-(dimethylcarbamoyl)phenyl]acetyl]-amino]ethyl]boronic acid]	+++++ (Selectivity ≥ 100)	< 0.05 µM	0.5 to 5 µM
O=C(Cc1ccc(-c2ccccc2)cc1)N[C@@H](Cc1coc2ccccc12)B(O)O [Compound No. 67, [(1R)-2-(benzofuran-3-yl)-1-[[2-(4-phenylphenyl)acetyl]amino]ethyl]-boronic acid]	++ (10 ≤ Selectivity < 50)	< 0.05 µM	0.5 to 5 µM
O=C(N[C@@H](Cc1coc2ccccc12)B(O)O)C(c1ccccc1)c1ccccc1 [Compound No. 68, [(1R)-2-(benzofuran-3-yl)-1-[(2,2-diphenylacetyl)amino]ethyl]boronic acid]	+++++ (Selectivity ≥ 100)	< 0.05 µM	0.5 to 5 µM
O=C(Cc1ccc(-c2ccccc2)cc1)N[C@H](Cc1coc2ccccc12)B(O)O [Compound No. 69, [(1S)-2-(benzofuran-3-yl)-1-[[2-(4-phenylphenyl)acetyl]amino]ethyl]-boronic acid]	++ (10 ≤ Selectivity < 50)	0.05 to 0.5 µM	0.5 to 5 µM
COc1ccc(CC(C(=O)N[C@@H](Cc2coc3ccccc23)B(O)O)c2ccccc2)cc1 (stereo partly drawn) [Compound No. 71, [(1R)-2-(benzofuran-3-yl)-1-[[3-(4-methoxyphenyl)-2-phenyl-propanoyl]amino]ethyl]boronic acid]	++++ (70 ≤ Selectivity < 100)	< 0.05 µM	0.5 to 5 µM
CCOC(=O)Nc1cccc(CC(=O)N[C@@H](Cc2coc3ccccc23)B(O)O)c1 [Compound No. 72, [(1R)-2-(benzofuran-3-yl)-1-[[2-[3-(ethoxycarbonylamino)phenyl]-acetyl]amino]ethyl]boronic acid]	+++ (50 ≤ Selectivity < 70)	< 0.05 µM	0.5 to 5 µM
O=C(Cc1ccccc1)N[C@@H](Cc1c(Cl)oc2ccccc12)B(O)O [Compound No. 73, [(1R)-2-(2-chlorobenzofuran-3-yl)-1-[(2-phenylacetyl)amino]ethyl]-boronic acid]	+++ (50 ≤ Selectivity < 70)	0.05 to 0.5 µM	> 5 µM
O=C(Cc1ccccc1)N[C@@H](CC1COc2ccccc21)B(O)O (stereo partly drawn) [Compound No. 74, [(1R)-2-(2,3-dihydrobenzofuran-3-yl)-1-[(2-phenylacetyl)amino]-ethyl]boronic acid]	+++++ (Selectivity ≥ 100)	< 0.05 µM	0.5 to 5 µM
Cc1cccc2c(C[C@H](NC(=O)Cc3ccccc3)B(O)O)coc12 [Compound No. 75, [(1R)-2-(7-methylbenzofuran-3-yl)-1-[(2-phenylacetyl)amino]-ethyl]boronic acid]	+++++ (Selectivity ≥ 100)	< 0.05 µM	0.5 to 5 µM
CO[C@@H](C(=O)N[C@@H](Cc1coc2c(C)cccc12)B(O)O)c1ccccc1 [Compound No. 76, [(1R)-1-[[(2R)-2-methoxy-2-phenyl-acetyl]amino]-2-(7-methylbenzofuran-3-yl)ethyl]boronic acid]	+++++ (Selectivity ≥ 100)	< 0.05 µM	0.5 to 5 µM
Cc1cccc2c1OCC2C[C@H](NC(=O)Cc1ccccc1)B(O)O (stereo partly drawn) [Compound No. 77, [(1R)-2-(7-methyl-2,3-dihydrobenzofuran-3-yl)-1-[(2-phenylacetyl)-amino]ethyl]boronic acid]	+++++ (Selectivity ≥ 100)	< 0.05 µM	0.5 to 5 µM
COc1ccc(OC)c(CC(=O)N[C@@H](Cc2coc3c(C)cccc23)B(O)O)c1 [Compound No. 78, [(1R)-1-[[2-(2,5-dimethoxyphenyl)acetyl]amino]-2-(7-methylbenzofuran-3-yl)ethyl]boronic acid]	+++++ (Selectivity ≥ 100)	< 0.05 µM	0.5 to 5 µM
Cc1cccc2c(C[C@H](NC(=O)[C@H](CO)c3ccccc3)B(O)O)coc12 [Compound No. 79, [(1R)-1-[[(2S)-3-hydroxy-2-phenyl-propanoyl]amino]-2-(7-methylbenzofuran-3-yl)ethyl]boronic acid]	+++++ (Selectivity ≥ 100)	< 0.05 µM	0.5 to 5 µM
Cc1cccc2c(C[C@@H](NC(=O)[C@H](CO)c3ccccc3)B(O)O)coc12 [Compound No. 80, [(1S)-1-[[(2S)-3-hydroxy-2-phenyl-propanoyl]amino]-2-(7-methylbenzofuran-3-yl)ethyl]boronic acid]	+++++ (Selectivity ≥ 100)	0.05 to 0.5 µM	> 5 µM
